Here are results for five compounds from patent US5827838A, “Method for the treatment of diseases related with protein isoprenylation” (priority 1994, dated 1998).

Series [1] has as its target T1, protein;farnesyl transferase (Oryctolagus cuniculus, UniProt G1SFC8+G1T7D9). In words: Inhibition of protein;farnesyl transferase using C-terminal octapeptide pre-p21N-ras coupled to Sepharose beads as substrate. More on the design: substrate N-ras C-terminal octapeptide on Sepharose beads. The series is classed as biochemical, rabbit.
Series [2] has as its target T1, protein;farnesyl transferase. Nature of the series: Inhibition of farnesylation of H-ras protein (p21ras precursor) by farnesyl:protein transferase in rabbit reticulocyte lysate, [3H]-FPP incorporation. The settings on record: different amounts of compound.
Target sequence in this assay (G1T7D9 entry or part of it, one chain of several): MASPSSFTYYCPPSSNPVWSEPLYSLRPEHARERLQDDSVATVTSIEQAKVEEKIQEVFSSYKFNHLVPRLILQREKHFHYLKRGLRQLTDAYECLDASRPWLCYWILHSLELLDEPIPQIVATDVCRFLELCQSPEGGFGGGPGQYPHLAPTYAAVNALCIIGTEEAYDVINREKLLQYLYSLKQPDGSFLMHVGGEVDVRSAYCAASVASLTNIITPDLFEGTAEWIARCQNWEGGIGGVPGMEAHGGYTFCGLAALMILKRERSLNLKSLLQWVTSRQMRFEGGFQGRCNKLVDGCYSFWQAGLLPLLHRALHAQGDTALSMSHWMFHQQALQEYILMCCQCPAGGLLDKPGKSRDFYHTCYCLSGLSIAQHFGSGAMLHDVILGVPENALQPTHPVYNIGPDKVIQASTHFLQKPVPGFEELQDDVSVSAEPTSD
In the next series the target is T2, squalene synthase (Rattus norvegicus, UniProt Q02769).
T2 construct: squalene synthase in rat liver microsomal preparations; from tissue; host or cells: rat liver microsomes
T2 sequence (Q02769 1-416): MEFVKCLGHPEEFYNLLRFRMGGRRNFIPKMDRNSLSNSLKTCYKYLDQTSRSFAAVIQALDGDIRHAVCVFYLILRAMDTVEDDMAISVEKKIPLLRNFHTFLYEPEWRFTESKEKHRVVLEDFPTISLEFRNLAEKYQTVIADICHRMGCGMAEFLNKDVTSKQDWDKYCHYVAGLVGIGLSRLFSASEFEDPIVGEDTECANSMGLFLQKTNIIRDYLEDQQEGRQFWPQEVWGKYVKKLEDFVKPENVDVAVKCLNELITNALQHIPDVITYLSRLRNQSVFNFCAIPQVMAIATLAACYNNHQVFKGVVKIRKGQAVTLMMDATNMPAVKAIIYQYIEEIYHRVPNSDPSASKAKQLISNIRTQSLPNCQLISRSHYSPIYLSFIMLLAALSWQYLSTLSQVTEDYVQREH
Nature of the series: Inhibition of squalene synthase in rat liver microsomal preparations. The class given is biochemical. The settings on record: at dosage amounts inhibiting p21ras farnesyl transferase.

Another series deals with Rat-1.H-ras13 cells. In words: Inhibition of cell proliferation of transformed Rat-1.H-ras13 cells (cell count, trypan blue exclusion). The series is classed as cell-based. The settings on record: 10 days. On the procedure:
Cells were cultured for 10 days in DMEM supplemented with 10% fetal calf serum in the presence of 0, 25 or 100 μM of compound 3. At day 0, cells were plated in monolayer culture at 5×10^3 cells per well (6 well plates). On day 3 and 7, cells were re-fed with the same medium. On day 10, cells were harvested by trypsinization and counted using a standard hemocytometer chamber. Values are the mean of triplicate countings of duplicate incubations. In these ten days control cells had been proliferated exponentially to 1.94×10^6 ±0.04×10^6 cells per well.

In series [3] the test system is farnesylation of p21ras in Rat-1.H-ras13 cells. The series is classed as cell-based, rat cells overexpressing human p21Ha-ras. The settings on record: 24 h. On the procedure: It was shown now that compound 3 acts as a protein: farnesyl transferase inhibitors in cultured cells. For this purpose Rat-1.H-ras13 cells, which overexpress human p21^Ha-ras (Downword J. et al., Proc. Natl. Acad. Sci. U.S.A. 1988; 85; 5774-5778), were used. These cells were incubated with [^3 H]-mevalonate and 0, 0.1, 1, 10 and 100 μM of compound 3 for 24 h in DMEM containing 1% human serum albumin and 2.5 μM of simvastatin.
Thereafter cells were lysed in 300 μl PBS supplemented with 1% Triton X-100, 0.5% sodium deoxycholate, and the protease inhibitors phenylmethylsulfonylfluoride (1 mM), leupeptine (50 μg/ml), pepstatin A (50 μg/ml) and trasylol (300 K.I.U./ml), and p21^ras was collected on immobilized monoclonal antibody Y13-259 (Osterop A.P.R.M. et al., J. Biol. Chem. 1992; 267; 14647-14653). After separation by SDS polyacrylamide gel electrophoresis the [^3 H]-labelled polypeptides were visualized by autoradiography.

[4] abbreviates: read-out: IC50, inhibition of protein;farnesyl transferase; octapeptide pre-p21N-ras on Sepharose beads as substrate.

Each structure is given as a SMILES string. Like-named read-outs stand apart in the source and are kept apart here.

For the compound `CC(C)=CCCC(C)=CCCC(C)=CCC(CC=C(C)CCC=C(C)CCC=C(C)C)(P(=O)(O)O)P(=O)(O)O` [bisfarnesylmethylenebis(phosphonic acid), reference compound], the IC50 in series [1] (octapeptide pre-p21N-ras on Sepharose beads as substrate; read-out: IC50, inhibition of protein;farnesyl transferase) was 147000 ± 37000 nM.
Consider `CC(C)=CCCC(C)=CCCC(C)=CCCP(=O)(O)OP(=O)(O)O` [compound 1, farnesylmethylphosphonophosphate], for which, in series [2], the “enzyme activity (farnesyl:protein transferase), result in words” value was “concentration-dependently decreased”. Besides, the “inhibition of squalene synthesis at amounts that inhibit p21ras farnesyl transferase, result in words” value on squalene synthase is given as “without inhibiting squalene synthesis”. Also, in series [1] (setting [4]), the IC50 amounted to 930 ± 230 nM.
With `CC(C)=CCCC(C)=CCCC(C)=CCP(=O)(O)OP(=O)(O)O` [compound 3, farnesylphosphonophosphate], the “enzyme activity (farnesyl:protein transferase), result in words” value in series [2] is recorded as “concentration-dependently decreased”. Besides, the “non-viable cells, trypan blue exclusion” value in the series on Rat-1.H-ras13 cells (0, 25 or 100 μM) is recorded as “no non-viable cells”. Besides, the “inhibition of proliferation of transformed cells, result in words” value in the series with Rat-1.H-ras13 cells (25 and 100 μM) is reported as “concentration-dependently inhibits the proliferation of transformed cells in culture”. Further, the inhibition at 25 µM in the series on Rat-1.H-ras13 cells (Rattus norvegicus, 240 h, 25 μM, read-out: reduction in cell numbers (of control values)) amounted to 32.5%. The inhibition at 100 µM in the series with Rat-1.H-ras13 cells (Rattus norvegicus, 240 h, 100 μM, read-out: reduction in cell numbers (of control values)) worked out at 49.5%. Also, at squalene synthase, the “inhibition of squalene synthesis at amounts that inhibit p21ras farnesyl transferase, result in words” value is reported as “without inhibiting squalene synthesis”. Further, in series [3] (100 μM), the “radioactivity measured in p21ras / farnesylation of ras protein, result in words” value is recorded as “no radioactivity was measured, showing that the farnesylation of the ras protein was totally blocked”. The IC50 in series [3] (DMEM with 1% human serum albumin and 2.5 μM simvastatin, read-out: IC50, inhibition of farnesylation of p21ras in cells) was 1000 to 10000 nM; in series [1] (setting [4]), 340 ± 50 nM. For the same compound, in series [3] (increasing concentrations (0.1, 1, 10, 100 μM)), the “radioactivity incorporated into p21ras, result in words” value is on record as “less radioactivity was incorporated into p21^ras”.
For `CC(C)=CCCC(C)=CCCC(C)=CCOCP(=O)(O)OP(=O)(O)O` [compound 5, farnesyloxymethylphosphono-phosphate], the IC50 in series [1] (setting [4]) was 520 ± 70 nM.
Take `CC(C)=CCCC(C)=CCCC(C)=CCC(OCP(=O)(O)O)P(=O)(O)O` (stereo not shown) [compound 6, farnesyl(phosphono)methoxymethylphosphonic acid]: the IC50 in series [1] (read-out: IC50, inhibition of protein;farnesyl transferase; octapeptide pre-p21N-ras on Sepharose beads as substrate; unit μm [sic]) is 580 ± 440 nM.
